From ChEMBL document CHEMBL1144970, “Protective effects of steroid saponins from Paris polyphylla var. yunnanensis on ethanol- or indomethacin-induced gastric mucosal lesions in rats: structural requirement for activity and mode of action” (Bioorg Med Chem Lett, 2003) come the findings set out here.

Assay [1] deals with Rattus norvegicus. In words: Reduction in length (control value = 126+/-9.1) of gastric lesions induced by ethanol was measured, after administration of 2.5 mg/kg po in rats. It is filed as functional, Stomach.
The test system of assay [2] is Rattus norvegicus. In words: Reduction in length ((control value = 126+/-9.1) of gastric lesions induced by ethanol was measured, after administration of 5 mg/kg po in rats. It is filed as functional, Stomach.
Assay [3] concerns Rattus norvegicus. Nature of the assay: Percent inhibition of gastric lesions induced by ethanol was measured, after administration of 2.5 mg/kg po in rats. Particulars: Stomach. In kind it is functional.
Assay [4] deals with Rattus norvegicus. Nature of the assay: Percent inhibition of gastric lesions induced by ethanol was measured, after administration of 5 mg/kg po in rats. In kind it is functional. Particulars: Stomach.

For the compound `C[C@@H](CC[C@@]1(O)O[C@H]2C[C@H]3[C@@H]4CC=C5C[C@@H](O[C@@H]6O[C@H](CO)[C@@H](O)[C@H](O[C@@H]7O[C@H](CO)[C@@H](O)[C@H](O)[C@H]7O)[C@H]6O[C@@H]6O[C@@H](C)[C@H](O)[C@@H](O)[C@H]6O)CC[C@]5(C)[C@H]4CC[C@]3(C)[C@H]2[C@@H]1C)CO[C@@H]1O[C@H](CO)[C@@H](O)[C@H](O)[C@H]1O` [PROTOGRACILLIN], the Length in the assay on Rattus norvegicus [1] is 115 mm; with Rattus norvegicus [2], 108 mm. Also, the inhibition in vivo at 2.5 mg/kg in the assay with Rattus norvegicus [3] was determined as 8.5%. Moreover, in the assay with Rattus norvegicus [4], the inhibition in vivo at 5 mg/kg was found to be 14.1%.

The inhibition in vivo is how much of the control response was suppressed. Read a low inhibition in vivo as a weak effect.
